Our source for the IC50 values is patent US12637432B2, “Inhibitors of ACK1/TNK2 tyrosine kinase” (H. LEE MOFFITT CANCER CENTER AND RESEARCH INSTITUTE, INC., priority 2020, dated 2026).

In the assay the target is T1, ACK1 (Homo sapiens, UniProt Q07912).
T1 construct: purchased Reaction Biology
Put plainly: Reaction Biology 33P Hotspot assay. The assay is classed as biochemical.

T1 sequence (Q07912 whole entry): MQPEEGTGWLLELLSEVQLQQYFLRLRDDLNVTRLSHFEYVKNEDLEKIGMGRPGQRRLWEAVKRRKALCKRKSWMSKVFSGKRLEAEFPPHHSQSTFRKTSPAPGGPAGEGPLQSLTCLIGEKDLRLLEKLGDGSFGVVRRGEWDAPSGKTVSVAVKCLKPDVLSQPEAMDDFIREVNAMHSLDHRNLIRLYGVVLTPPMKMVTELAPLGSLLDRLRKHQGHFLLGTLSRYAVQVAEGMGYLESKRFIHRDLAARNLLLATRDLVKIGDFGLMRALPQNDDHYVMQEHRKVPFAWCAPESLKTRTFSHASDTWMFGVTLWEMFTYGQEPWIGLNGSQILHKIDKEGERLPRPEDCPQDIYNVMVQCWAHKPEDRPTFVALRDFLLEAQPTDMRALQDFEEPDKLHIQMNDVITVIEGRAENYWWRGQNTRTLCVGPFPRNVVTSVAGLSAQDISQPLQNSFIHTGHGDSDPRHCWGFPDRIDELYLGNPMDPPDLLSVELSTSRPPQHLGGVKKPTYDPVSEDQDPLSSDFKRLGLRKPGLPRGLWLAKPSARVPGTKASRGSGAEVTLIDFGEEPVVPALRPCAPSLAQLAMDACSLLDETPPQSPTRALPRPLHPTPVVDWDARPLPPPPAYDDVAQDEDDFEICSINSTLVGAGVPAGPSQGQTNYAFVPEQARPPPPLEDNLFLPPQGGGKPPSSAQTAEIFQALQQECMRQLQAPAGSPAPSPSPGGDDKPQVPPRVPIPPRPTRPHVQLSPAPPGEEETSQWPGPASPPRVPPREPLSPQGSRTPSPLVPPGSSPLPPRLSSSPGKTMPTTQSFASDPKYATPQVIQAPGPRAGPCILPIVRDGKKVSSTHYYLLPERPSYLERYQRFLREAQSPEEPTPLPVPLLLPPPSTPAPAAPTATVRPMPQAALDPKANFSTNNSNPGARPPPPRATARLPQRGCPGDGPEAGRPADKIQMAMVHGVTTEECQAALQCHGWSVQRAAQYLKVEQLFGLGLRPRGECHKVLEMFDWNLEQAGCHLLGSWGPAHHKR

On to `CN1CCN(c2ccc(Nc3ncc(Cl)c(NCC4CCOCC4)n3)c(O)c2)CC1` [2-((5-chloro-4-(((tetrahydro-2H-pyran-4-yl)methyl)amino)pyrimidin-2-yl)amino)-5-(4-methylpiperazin-1-yl)phenol], for which the IC50 (as a rule, the concentration at which inhibition is half-maximal) is 55.3 nM.
The compound `CN1CCC(n2cc(Nc3ncc(Cl)c(NCC4CCOCC4)n3)cn2)CC1` [5-chloro-N^2-(1-(1-methylpiperidin-4-yl)-1H-pyrazol-4-yl)-N^4-((tetrahydro-2H-pyran-4-yl)methyl)pyrimidine-2,4-diamine] had an IC50 of 138 nM.
For `Clc1cnc(Nc2cnn(C3CCOCC3)c2)nc1NCC1CCOCC1` [5-chloro-N^2-(1-(tetrahydro-2H-pyran-4-yl)-1H-pyrazol-4-yl)-N^4-((tetrahydro-2H-pyran-4-yl)methyl)pyrimidine-2,4-diamine], the IC50 stood at 90 nM.
With `Cn1cc(Nc2ncc(Cl)c(NCC3CCOCC3)n2)cn1` [5-chloro-N^2-(1-methyl-1H-pyrazol-4-yl)-N^4-((tetrahydro-2H-pyran-4-yl)methyl)pyrimidine-2,4-diamine] the figure was 84 nM; with `CC(C)Oc1cc(-c2cnn(C)c2)ccc1Nc1ncc(Cl)c(NCC2CCOCC2)n1` [5-chloro-N^2-(2-isopropoxy-4-(1-methyl-1H-pyrazol-4-yl)phenyl)-N^4-((tetrahydro-2H-pyran-4-yl)methyl)pyrimidine-2,4-diamine], 232 nM.
In the case of `COc1cc(-c2cnn(C)c2)ccc1Nc1ncc(Cl)c(NCC2CCOCC2)n1` [5-chloro-N^2-(2-methoxy-4-(1-methyl-1H-pyrazol-4-yl)phenyl)-N^4-((tetrahydro-2H-pyran-4-yl)methyl)pyrimidine-2,4-diamine], the concentration for half-maximal inhibition (IC50) is 38.1 nM.
The compound `COc1cc(-n2cccn2)ccc1Nc1ncc(Cl)c(NCC2CCOCC2)n1` [5-chloro-N^2-(2-methoxy-4-(1H-pyrazol-1-yl)phenyl)-N^4-((tetrahydro-2H-pyran-4-yl)methyl)pyrimidine-2,4-diamine] displayed an IC50 of 34.9 nM.
With `Cn1cc(-c2ccc(Nc3ncc(Cl)c(NCC4CCOCC4)n3)cc2F)cn1` [5-chloro-N^2-(3-fluoro-4-(1-methyl-1H-pyrazol-4-yl)phenyl)-N^4-((tetrahydro-2H-pyran-4-yl)methyl)pyrimidine-2,4-diamine], half-maximal inhibition (IC50) was put at 31 nM.
`CC(C)Oc1cc(Nc2ncc(Cl)c(NCC3CCOCC3)n2)ccc1-c1cnn(C)c1` [5-chloro-N^2-(3-isopropoxy-4-(1-methyl-1H-pyrazol-4-yl)phenyl)-N^4-((tetrahydro-2H-pyran-4-yl)methyl)pyrimidine-2,4-diamine] had a half-maximal inhibitory concentration (IC50) of 23.6 nM.
`COc1cc(Nc2ncc(Cl)c(NCC3CCOCC3)n2)ccc1-c1cnn(C)c1` [5-chloro-N^2-(3-methoxy-4-(1-methyl-1H-pyrazol-4-yl)phenyl)-N^4-((tetrahydro-2H-pyran-4-yl)methyl)pyrimidine-2,4-diamine]: the IC50 is 27.6 nM.
In turn, `CN1CCN(Cc2ccc(Nc3ncc(Cl)c(NCC4CCOCC4)n3)cc2)CC1` [5-chloro-N^2-(4-((4-methylpiperazin-1-yl)methyl)phenyl)-N^4-((tetrahydro-2H-pyran-4-yl)methyl)pyrimidine-2,4-diamine] showed an IC50 of 69.1 nM.
On to `Clc1cnc(Nc2ccc(OCC3CCOCC3)cc2)nc1NCC1CCOCC1` [5-chloro-N^2-(4-((tetrahydro-2H-pyran-4-yl)methoxy)phenyl)-N^4-((tetrahydro-2H-pyran-4-yl)methyl)pyrimidine-2,4-diamine], for which the IC50 was found to be 46 nM.
Take `COc1cc(-n2cccn2)ccc1Nc1ncc(Cl)c(NC[C@H]2CCCO2)n1` [(R)-5-chloro-N^2-(2-methoxy-4-(1H-pyrazol-1-yl)phenyl)-N^4-((tetrahydrofuran-2-yl)methyl)pyrimidine-2,4-diamine]: the IC50 was found to be 64.6 nM.
In the case of `CC(C)Oc1cc(Nc2ncc(Cl)c(N[C@H](C)C3CCOCC3)n2)ccc1C1CCN(C)CC1` [(R)-5-chloro-N^2-(3-isopropoxy-4-(1-methylpiperidin-4-yl)phenyl)-N^4-(1-(tetrahydro-2H-pyran-4-yl)ethyl)pyrimidine-2,4-diamine], half-maximal inhibition (IC50) required 40.8 nM.
